# Legend:
# rat cardiac allografts [1] = assay: Rat cardiac allograft study, Allograft Study 2 (Table 20); conditions: for percent of surviving grafts within a group / number of surviving grafts within each group: s.c., GG5/3 3 mg/kg, compounds 30 mg/kg;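 on all read-outs here: lewis x Brown Norway F1 hearts grafted abdominally into male Lewis rats, palpated daily, rejection meaning complete loss of heartbeat, day 0 being surgery day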
# Procedure: Hearts from Lewis X Brown Norway F1 hybrids were transplanted to the abdominal great vessels of Lewis recipients using standard microvascular techniques. Both rat strains were male inbred rats, weighing 200-300 g. Food and water was available at all times except during surgical and dosing procedures. The day of transplantation was noted as day 0. […] Allograft survival in the rats was evaluated by daily palpation of the transplanted heart through the recipient's flank. Rejection was taken as the day of complete cessation of the graft's heart beat. Upon determination of rejection, the abdomen of the recipient was incised and retracted to confirm cessation of the heart beat in the transplanted heart. If cessation of the heart beat was not confirmed the abdomen was surgically closed, and the grafted heart was evaluated daily.
# Cardiac allografts were established. Dosing of compounds began on day 0, prior to transplantation and continued through day +10. […] The vehicle control, 10% ethanol/corn oil, was administered s.c., every 12 hours, day 0 through day +10. The antibody, GG5/3 in 0.9% saline, was administered at 3 mg/kg, s.c., on day 0, +3, +7 and +10. All GG5/3 animals received twice daily s.c. injections of 0.9% saline, every 12 hours, throughout day 0 through day +10. The vehicle control, 0.9% saline, was administered daily, s.c., day 0 through day +10. All dosing solutions were formulated daily at a constant dose volume of 5 ml/kg. The site of injection was rotated at each injection through four possible sites: right and left fore flank, right and left rear flank. A total of 28 allografts, amongst 5 groups, were evaluated in the study. Group 1, consisted of 6 animals treated with the monoclonal antibody, GG5/3. […] Allograft survival was evaluated by daily palpation of the transplanted heart through the recipient's flank. Rejection was taken as the day of complete cessation of graft's heart beat. Upon determination of rejection, the abdomen of the recipient was incised to confirm cessation of the heart beat in the transplanted heart. If cessation of the graft's heart beat was not confirmed the abdomen was surgically closed, and the graft was evaluated daily.
# rat cardiac allografts [2] = assay: Rat cardiac allograft study, Allograft Study 4 (Table 22); conditions: s.c., GG5/3 3 mg/kg, compounds 30 mg/kg;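 further: heterotopic abdominal heart transplants from Lewis × Brown Norway F1 donors into male Lewis rats, graft beating checked daily by flank palpation, rejection defined as complete stop of heartbeat, transplant day 0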
# Procedure: Hearts from Lewis X Brown Norway F1 hybrids were transplanted to the abdominal great vessels of Lewis recipients using standard microvascular techniques. Both rat strains were male inbred rats, weighing 200-300 g. Food and water was available at all times except during surgical and dosing procedures. The day of transplantation was noted as day 0. Twelve hours following the last dose approximately 1 ml of blood was collected into lithium/heparin anti-coagulant tubes. If any graft was rejected prior to the last day of dosing, blood samples were taken 12 hours after dosing on the day that graft rejection was noted. All blood samples were centrifuged at 3000 rpm for 10 minutes and the plasma was harvested, frozen on dry ice and stored frozen at −20 C prior to analysis. Allograft survival in the rats was evaluated by daily palpation of the transplanted heart through the recipient's flank. Rejection was taken as the day of complete cessation of the graft's heart beat. Upon determination of rejection, the abdomen of the recipient was incised and retracted to confirm cessation of the heart beat in the transplanted heart. If cessation of the heart beat was not confirmed the abdomen was surgically closed, and the grafted heart was evaluated daily.
# Cardiac allografts were established. Dosing of compounds began on day −2, 2 days prior to transplantation and continued through day +10. […] The vehicle control, 0.9% saline, pH adjusted to a value of 5, to match the dosing solution containing the N-[N-(3-pyridinesulfonyl)-L-3,3-dimethyl-4-thiaprolyl]-0-[1-methylpiperazin-4-ylcarbonyl]-L-tyrosine isopropyl ester, was administered via the same route, i.e. every 12 hours, day −2 through day +10. The antibody, GG5/3 in 0.9% saline, was administered at 3 mg/kg, s.c., on day 0, +3, +7 and +10. All GG5/3 animals received twice daily s.c. injections of 0.9% saline, every 12 hours, from day −2 through day +10. The vehicle control, 0.9% saline, was administered daily, s.c., day 0 through day +10. All dosing solutions were formulated daily at a constant dose volume of 5 ml/kg. The site of injection was rotated at each injection through four possible sites: right and left fore flank, right and left rear flank. A total of 21 allografts, amongst 5 groups, were evaluated in the study. […] Two animals within the 0.9% saline group received saline adjusted to a pH a value of 5. (The pH value of the N-[N-(3-pyridinesulfonyl)-L-3,3-dimethyl-4-thiaprolyl]-0-[1-methylpiperazin-4-ylcarbonyl]-L-tyrosine isopropyl ester dosing solution.) The remaining two animals received saline of pH 7. Group 2 consisted of 6 animals treated with the monoclonal antibody, GG5/3. […] Twelve hours following the last dose approximately 1 ml of blood was collected into lithium/heparin anti-coagulant tubes. If any graft was rejected prior to the last day of dosing, blood samples were taken 12 hours after dosing on the day that graft rejection was noted. All samples were centrifuged at 3000 rpm for 10 minutes and the plasma was harvested, frozen on dry ice and stored frozen at −20 C prior to dispatch for analysis. Allograft survival in the rats was evaluated by daily palpation of the transplanted heart through the recipient's flank. Rejection was taken as the day of complete cessation of graft's heart beat. Upon determination of rejection, the abdomen of the recipient was incised to confirm cessation of the heart beat in the transplanted heart. If cessation of the heart beat was not confirmed the abdomen was surgically closed, and the graft was evaluated daily.
smiles,measurement,setting,value
CC(C)OC(=O)[C@H](Cc1ccc(OC(=O)N(C)C)cc1)NC(=O)[C@H]1N(S(=O)(=O)c2cnn(C)c2)CSC1(C)C,percent of surviving grafts within a group,rat cardiac allografts [1]; Day 0,100%
same,percent of surviving grafts within a group,rat cardiac allografts [1]; Day 1,100%
same,percent of surviving grafts within a group,rat cardiac allografts [1]; Day 2,100%
same,percent of surviving grafts within a group,rat cardiac allografts [1]; Day 3,100%
same,percent of surviving grafts within a group,rat cardiac allografts [1]; Day 4,100%
same,percent of surviving grafts within a group,rat cardiac allografts [1]; Day 5,100%
same,percent of surviving grafts within a group,rat cardiac allografts [1]; Day 6,100%
same,percent of surviving grafts within a group,rat cardiac allografts [1]; Day 7,100%
same,percent of surviving grafts within a group,rat cardiac allografts [1]; Day 8,100%
same,percent of surviving grafts within a group,rat cardiac allografts [1]; Day 9,100%
same,percent of surviving grafts within a group,rat cardiac allografts [1]; Day 10,83%
same,percent of surviving grafts within a group,rat cardiac allografts [1]; Day 11,50%
same,percent of surviving grafts within a group,rat cardiac allografts [1]; Day 12,50%
same,percent of surviving grafts within a group,rat cardiac allografts [1]; Day 13,33%
same,percent of surviving grafts within a group,rat cardiac allografts [1]; Day 14,16%
same,percent of surviving grafts within a group,rat cardiac allografts [1]; Day 15,16%
same,percent of surviving grafts within a group,rat cardiac allografts [1]; Day 16,0%
CC(C)OC(=O)[C@H](Cc1ccc(OC(=O)N2CCN(C)CC2)cc1)NC(=O)[C@H]1N(S(=O)(=O)c2cccnc2)CSC1(C)C,percent of surviving grafts within a group,rat cardiac allografts [2]; day 0,100%
same,percent of surviving grafts within a group,rat cardiac allografts [2]; day 1,100%
same,percent of surviving grafts within a group,rat cardiac allografts [2]; day 2,100%
same,percent of surviving grafts within a group,rat cardiac allografts [2]; day 3,100%
same,percent of surviving grafts within a group,rat cardiac allografts [2]; day 4,100%
same,percent of surviving grafts within a group,rat cardiac allografts [2]; day 5,100%
same,percent of surviving grafts within a group,rat cardiac allografts [2]; day 6,100%
same,percent of surviving grafts within a group,rat cardiac allografts [2]; day 7,100%
same,percent of surviving grafts within a group,rat cardiac allografts [2]; day 8,100%
same,percent of surviving grafts within a group,rat cardiac allografts [2]; day 9,83%
same,percent of surviving grafts within a group,rat cardiac allografts [2]; day 10,66%
same,percent of surviving grafts within a group,rat cardiac allografts [2]; day 11,66%
same,percent of surviving grafts within a group,rat cardiac allografts [2]; day 12,66%
same,percent of surviving grafts within a group,rat cardiac allografts [2]; day 13,66%
same,percent of surviving grafts within a group,rat cardiac allografts [2]; day 14,66%
same,percent of surviving grafts within a group,rat cardiac allografts [2]; day 15,66%
same,percent of surviving grafts within a group,rat cardiac allografts [2]; day 16,50%
same,percent of surviving grafts within a group,rat cardiac allografts [2]; day 17,50%
same,percent of surviving grafts within a group,rat cardiac allografts [2]; day 18,50%
same,percent of surviving grafts within a group,rat cardiac allografts [2]; day 19,50%
same,number of surviving grafts,rat cardiac allografts [2]; day 20,2
same,percent of surviving grafts within a group,rat cardiac allografts [2]; day 20,33%
same,number of surviving grafts,rat cardiac allografts [2]; day 21,2
same,percent of surviving grafts within a group,rat cardiac allografts [2]; day 21,33%
same,number of surviving grafts,rat cardiac allografts [2]; day 22,2
same,percent of surviving grafts within a group,rat cardiac allografts [2]; day 22,33%
same,number of surviving grafts,rat cardiac allografts [2]; day 23,2
same,percent of surviving grafts within a group,rat cardiac allografts [2]; day 23,33%
same,number of surviving grafts,rat cardiac allografts [2]; day 24,2
same,percent of surviving grafts within a group,rat cardiac allografts [2]; day 24,33%
same,number of surviving grafts,rat cardiac allografts [2]; day 25,2
same,percent of surviving grafts within a group,rat cardiac allografts [2]; day 25,33%
same,number of surviving grafts,rat cardiac allografts [2]; day 26,2
same,percent of surviving grafts within a group,rat cardiac allografts [2]; day 26,33%
same,number of surviving grafts,rat cardiac allografts [2]; day 27,2
same,percent of surviving grafts within a group,rat cardiac allografts [2]; day 27,33%
same,number of surviving grafts,rat cardiac allografts [2]; day 28,2
same,percent of surviving grafts within a group,rat cardiac allografts [2]; day 28,33%
same,number of surviving grafts,rat cardiac allografts [2]; day 29,2
same,percent of surviving grafts within a group,rat cardiac allografts [2]; day 29,33%
same,number of surviving grafts,rat cardiac allografts [2]; day 30,2
same,percent of surviving grafts within a group,rat cardiac allografts [2]; day 30,33%
same,number of surviving grafts,rat cardiac allografts [2]; day 31,1
same,percent of surviving grafts within a group,rat cardiac allografts [2]; day 31,16%
same,number of surviving grafts,rat cardiac allografts [2]; day 32,1
same,percent of surviving grafts within a group,rat cardiac allografts [2]; day 32,16%
same,number of surviving grafts,rat cardiac allografts [2]; day 33,1
same,percent of surviving grafts within a group,rat cardiac allografts [2]; day 33,16%
same,number of surviving grafts,rat cardiac allografts [2]; day 34,1
same,percent of surviving grafts within a group,rat cardiac allografts [2]; day 34,16%
same,number of surviving grafts,rat cardiac allografts [2]; day 35,1
same,percent of surviving grafts within a group,rat cardiac allografts [2]; day 35,16%
same,number of surviving grafts,rat cardiac allografts [2]; day 36,1
same,percent of surviving grafts within a group,rat cardiac allografts [2]; day 36,16%
same,number of surviving grafts,rat cardiac allografts [2]; day 37,1
same,percent of surviving grafts within a group,rat cardiac allografts [2]; day 37,16%
same,number of surviving grafts,rat cardiac allografts [2]; day 38,1
same,percent of surviving grafts within a group,rat cardiac allografts [2]; day 38,16%
same,number of surviving grafts,rat cardiac allografts [2]; day 39,1
same,percent of surviving grafts within a group,rat cardiac allografts [2]; day 39,16%
same,number of surviving grafts,rat cardiac allografts [2]; day 40,1
same,percent of surviving grafts within a group,rat cardiac allografts [2]; day 40,16%
same,number of surviving grafts,rat cardiac allografts [2]; day 41,1
same,percent of surviving grafts within a group,rat cardiac allografts [2]; day 41,16%
same,number of surviving grafts,rat cardiac allografts [2]; day 42,0
same,percent of surviving grafts within a group,rat cardiac allografts [2]; day 42,0%
CC(C)OC(=O)[C@H](Cc1ccc(OC(=O)N(C)C)cc1)NC(=O)[C@H]1N(S(=O)(=O)c2cccnc2)CSC1(C)C [listing 1 of 2 here],number of surviving grafts within each group,rat cardiac allografts [1]; Day 0,6
same,number of surviving grafts within each group,rat cardiac allografts [1]; Day 1,6
same,number of surviving grafts within each group,rat cardiac allografts [1]; Day 2,6
same,number of surviving grafts within each group,rat cardiac allografts [1]; Day 3,6
same,number of surviving grafts within each group,rat cardiac allografts [1]; Day 4,6
same,number of surviving grafts within each group,rat cardiac allografts [1]; Day 5,6
same,number of surviving grafts within each group,rat cardiac allografts [1]; Day 6,6
same,number of surviving grafts within each group,rat cardiac allografts [1]; Day 7,6
same,number of surviving grafts within each group,rat cardiac allografts [1]; Day 8,4
same,number of surviving grafts within each group,rat cardiac allografts [1]; Day 9,2
same,number of surviving grafts within each group,rat cardiac allografts [1]; Day 10,2
same,number of surviving grafts within each group,rat cardiac allografts [1]; Day 11,1
same,number of surviving grafts within each group,rat cardiac allografts [1]; Day 12,0
same,number of surviving grafts within each group,rat cardiac allografts [1]; Day 13,0
same,number of surviving grafts within each group,rat cardiac allografts [1]; Day 14,0
same,number of surviving grafts within each group,rat cardiac allografts [1]; Day 15,0
same,number of surviving grafts within each group,rat cardiac allografts [1]; Day 16,0
CC(C)OC(=O)[C@H](Cc1ccc(OC(=O)N(C)C)cc1)NC(=O)[C@H]1N(S(=O)(=O)c2cccnc2)CSC1(C)C [listing 2 of 2 here],percent of surviving grafts within a group,rat cardiac allografts [1]; Day 0,100%
same,percent of surviving grafts within a group,rat cardiac allografts [1]; Day 1,100%
same,percent of surviving grafts within a group,rat cardiac allografts [1]; Day 2,100%
same,percent of surviving grafts within a group,rat cardiac allografts [1]; Day 3,100%
same,percent of surviving grafts within a group,rat cardiac allografts [1]; Day 4,100%
same,percent of surviving grafts within a group,rat cardiac allografts [1]; Day 5,100%
same,percent of surviving grafts within a group,rat cardiac allografts [1]; Day 6,100%
same,percent of surviving grafts within a group,rat cardiac allografts [1]; Day 7,100%
same,percent of surviving grafts within a group,rat cardiac allografts [1]; Day 8,66%
same,percent of surviving grafts within a group,rat cardiac allografts [1]; Day 9,50%
same,percent of surviving grafts within a group,rat cardiac allografts [1]; Day 10,50%
same,percent of surviving grafts within a group,rat cardiac allografts [1]; Day 11,16%
same,percent of surviving grafts within a group,rat cardiac allografts [1]; Day 12,0%
same,percent of surviving grafts within a group,rat cardiac allografts [1]; Day 13,0%
same,percent of surviving grafts within a group,rat cardiac allografts [1]; Day 14,0%
same,percent of surviving grafts within a group,rat cardiac allografts [1]; Day 15,0%
same,percent of surviving grafts within a group,rat cardiac allografts [1]; Day 16,0%
CC(C)OC(=O)[C@H](Cc1ccc(OC(=O)N(C)C)cc1)NC(=O)[C@H]1N(S(=O)(=O)c2cccnc2)CSC1(C)C [Example 173],day by which all grafts rejected,"rat cardiac allografts [1]; 30 mg/kg s.c. every 12 h, day 0 through day +10",≤ 12 days
same,graft survival (in words),"rat cardiac allografts [1]; compounds 30 mg/kg s.c. every 12 h, GG5/3 3 mg/kg s.c. day 0, +3, +7, +10",prolonged graft survival for a short period

# Reference: patent publication US20060004019A1, “Steroid sparing agents and methods of using same” (priority 2004, published 2006)
